One assay concerns the target T1, Aminopeptidase N (Plasmodium falciparum FcB1/Columbia, UniProt O96935).
T1 sequence (O96935 whole entry): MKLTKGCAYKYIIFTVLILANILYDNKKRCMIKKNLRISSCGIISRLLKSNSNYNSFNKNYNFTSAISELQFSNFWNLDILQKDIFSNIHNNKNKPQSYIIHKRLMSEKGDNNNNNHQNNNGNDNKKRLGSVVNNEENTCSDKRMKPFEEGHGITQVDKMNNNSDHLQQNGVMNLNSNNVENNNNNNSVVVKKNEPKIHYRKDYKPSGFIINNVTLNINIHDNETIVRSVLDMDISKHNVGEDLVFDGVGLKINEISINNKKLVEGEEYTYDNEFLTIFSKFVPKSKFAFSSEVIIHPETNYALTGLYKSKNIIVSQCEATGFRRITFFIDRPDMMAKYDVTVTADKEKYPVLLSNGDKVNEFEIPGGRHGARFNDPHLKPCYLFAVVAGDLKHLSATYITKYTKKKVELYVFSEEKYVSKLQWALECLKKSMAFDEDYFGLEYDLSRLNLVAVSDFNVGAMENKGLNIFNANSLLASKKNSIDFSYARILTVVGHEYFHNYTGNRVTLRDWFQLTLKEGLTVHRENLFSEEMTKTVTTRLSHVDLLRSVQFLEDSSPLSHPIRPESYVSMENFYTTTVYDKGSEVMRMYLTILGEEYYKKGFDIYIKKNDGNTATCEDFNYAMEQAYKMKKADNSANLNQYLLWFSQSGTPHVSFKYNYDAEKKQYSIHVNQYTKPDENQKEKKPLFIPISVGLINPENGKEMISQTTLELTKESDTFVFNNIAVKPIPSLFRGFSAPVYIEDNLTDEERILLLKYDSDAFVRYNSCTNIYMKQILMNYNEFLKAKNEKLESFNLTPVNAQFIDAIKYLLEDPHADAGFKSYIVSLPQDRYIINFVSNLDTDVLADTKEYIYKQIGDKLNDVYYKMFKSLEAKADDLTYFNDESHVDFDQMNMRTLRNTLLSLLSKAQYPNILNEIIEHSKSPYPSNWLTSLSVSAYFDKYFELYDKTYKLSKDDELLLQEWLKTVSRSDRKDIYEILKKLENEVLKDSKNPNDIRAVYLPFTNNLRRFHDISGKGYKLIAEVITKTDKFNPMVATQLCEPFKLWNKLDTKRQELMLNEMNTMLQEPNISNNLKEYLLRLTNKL
The assay is described as follows: P. falciparum M1AAP inhibitors, biochemical, fluorogenic H-Leu-NHMec substrate, 1536-well (AID 1445). On the set-up: species or system Plasmodium falciparum 3D7, 3D7.

The target of assay [1] is T2, Bifunctional protein GlmU (Mycobacterium tuberculosis, UniProt P9WMN3).
T2 sequence (P9WMN3 whole entry): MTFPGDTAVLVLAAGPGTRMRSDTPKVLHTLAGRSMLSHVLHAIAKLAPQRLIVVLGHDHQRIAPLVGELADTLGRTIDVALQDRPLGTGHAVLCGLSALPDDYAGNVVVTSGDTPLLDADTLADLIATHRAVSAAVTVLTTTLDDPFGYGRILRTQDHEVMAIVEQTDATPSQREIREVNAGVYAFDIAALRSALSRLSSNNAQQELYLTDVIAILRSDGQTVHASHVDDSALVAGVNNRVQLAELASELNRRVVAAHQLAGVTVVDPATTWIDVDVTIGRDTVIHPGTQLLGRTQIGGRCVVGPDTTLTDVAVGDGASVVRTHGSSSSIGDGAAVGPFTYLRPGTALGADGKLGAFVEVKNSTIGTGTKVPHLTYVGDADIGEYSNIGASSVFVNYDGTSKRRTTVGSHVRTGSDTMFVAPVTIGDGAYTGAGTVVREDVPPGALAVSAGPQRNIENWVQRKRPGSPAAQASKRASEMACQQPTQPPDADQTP
The assay is described as follows: Inhibitors of Mycobacterial Glucosamine-1-phosphate acetyl transferase (GlmU). Secondary screen. On the set-up: species or system Mycobacterium tuberculosis H37Rv.

Assay [2] is described as follows: HeLa 2N DNA content increase, dose response, cell-based, IC50 (AID 1117349). The format is functional.
A short description of assay [3]: Dose-response inhibition of insulin secretion in a rat insulinoma line at 5 mM glucose (AID 1117331). Particulars: INS-1E. The class given is functional, cell-based.
The next assay is described as follows: cells. The class given is functional, cell-based. Particulars: INS-1E.
Assay [4] can be described thus: HeLa 4N DNA content increase, dose response, cell-based, IC50 (AID 1117351). The format is functional.
Assay [5] can be described thus: cytotoxicity in HEK-293T cells, dose response, cytotoxicity control for BCR NF-kB inhibitor project, luminescence, B-cell screen hits (AID 489021).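 Note: HEK-293T cells carrying an NF-kB luciferase reporter; cells exposed to compound for about 14 hours before viability readout.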 The class given is functional, cell-based.
A further assay relates to H9c2. The assay is described as follows: cells. The format is functional, cell-based. The conditions noted are these: Rattus norvegicus, H9c2, Myocardium.
Assay [6] in a line: P. falciparum late gametocyte killing, dose response, luminescence (AID 1117278).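 Note: gametocytes exposed to compound for 24 hours.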 The format is functional, cell-based.
Assay [7] in a line: Jurkat T cell cytotoxicity, dose response, cytotoxicity control for P. falciparum gametocyte viability project, luminescence (AID 1117277).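 Note: potency reflects loss of cellular ATP meaning fewer viable cells.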 The class given is functional, cell-based.
Assay [8] can be described thus: M. tuberculosis H37Rv growth inhibitors, H37Rv strain (AID 1626). The format is functional.
For assay [9], the target named is T3, Mannose-6-phosphate isomerase (Homo sapiens, UniProt P34949).
T3 sequence (P34949 whole entry): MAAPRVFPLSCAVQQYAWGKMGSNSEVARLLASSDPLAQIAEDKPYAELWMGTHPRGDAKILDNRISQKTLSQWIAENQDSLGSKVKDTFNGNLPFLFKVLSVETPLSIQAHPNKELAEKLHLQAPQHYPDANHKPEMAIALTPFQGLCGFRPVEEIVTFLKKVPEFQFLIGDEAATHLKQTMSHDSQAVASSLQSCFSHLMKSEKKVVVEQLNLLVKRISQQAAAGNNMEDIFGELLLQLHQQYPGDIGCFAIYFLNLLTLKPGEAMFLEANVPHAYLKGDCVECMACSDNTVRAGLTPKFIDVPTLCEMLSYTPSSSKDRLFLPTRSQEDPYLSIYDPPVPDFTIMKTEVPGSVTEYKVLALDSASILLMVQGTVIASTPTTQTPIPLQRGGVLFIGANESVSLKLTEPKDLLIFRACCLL
Nature of the assay: human PMI inhibitors, high substrate, primary screen, biochemical, fluorescence intensity, high mannose 6-phosphate (AID 1220).

Assay [10] can be described thus: HEp-2 cell cytotoxicity, dose response, cytotoxicity control for RSV inhibitor project, HTS (AID 2410). The format is functional. Particulars: human respiratory syncytial virus.
Assay [11] is described as follows: cytotoxicity in HPDE-C7 cells, cell-based, fluorescence, HTS (AID 430). The class given is functional. The conditions noted are these: Homo sapiens.
Assay [12] can be described thus: cytotoxicity in KRAS-transformed pancreatic duct cells, primary screen, cell-based, fluorescence, HTS (AID 431).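 Note: cell line used: HPDE-C7K.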 The format is functional. The conditions noted are these: Homo sapiens.

Structures are written as SMILES. Counter-ions that a name gives are not always drawn. Calls of active or inactive are those of the source.

In the case of `O=C1NC(=S)S/C1=C\c1coc2ccc(O)cc2c1=O`, the IC50 (as a rule, the concentration that gives 50% inhibition) on Aminopeptidase N was 38.8 µM (active); in assay [1], 112 µM (active).
For `CN(C)CCC=C1c2ccccc2CCc2ccccc21` [AMITRIPTYLINE HYDROCHLORIDE], the IC50 in assay [2] was > 10 µM (inactive); in assay [3] it was 3 µM (active); in “cells” it was > 33.3 µM (inactive); in [4] it was > 10 µM (inactive).
For `CC(C)N1C(=O)S/C(=C/c2ccc3c(c2)n(C)c(=O)n3C)C1=O`, the IC50 in [5] was > 80 µM (inactive); in the assay on H9c2 it was 32.2 µM (inactive).
With `COc1ccc(-c2nc(C[S+]([O-])CC(=O)NCCCN3CC(C)CC(C)C3)c(C)o2)cc1OC` (stereo not given), the IC50 was > 109 µM (inactive) in assay [6] and > 83.3 µM (inactive) in assay [7].
As for `CC1(C)CC(NC(=O)c2sc3cc(Cl)ccc3c2Cl)CC(C)(C)N1`, in assay [8], the IC50 was > 100 µM (active).
Regarding `CCC1Cc2c(nc(N)c3c(N)nc(N4CCCCC4)c(C#N)c23)O1` (stereo not given), the IC50 in assay [9] is > 50 µM (not active).
As for `CCCCN1CCCC[C@H]1C(=O)Nc1c(C)cccc1C` [LEVOBUPIVACAINE HYDROCHLORIDE], the IC50 in [3] is 27.2 µM (inactive); in the assay “cells”, > 33.3 µM (inactive).
As for `COc1cc2c(C#N)c(N3CCc4ccccc4C3)nc(N)c2c(N)n1`, the cytotoxic concentration (CC50) – broadly, the concentration at which the toxic effect on the cells reaches its halfway point – in [10] is 15.2 µM (active). Besides, the EC50 (usually the concentration needed to bring the measured effect to its halfway point) in [11] was 7.82 µM (active); in [12] it was 8.37 µM (active). For the same compound, the half-inhibitory concentration (IC50) in assay [9] is reported as > 50 µM (not active).
In the case of `CCOC(=O)CNC(=O)c1cc(OC)cc(OC)c1`, the IC50 is > 109 µM (inactive) in assay [6] and > 83.3 µM (inactive) in [7].

Values taken from ChEMBL document CHEMBL1201862, “PubChem BioAssay data set” (2004).
